The assay addresses T1, RAT 5-LIPOXYGENASE (Rattus norvegicus, UniProt P12527).
T1 construct: A suspension of rat neutrophils in buffer; endogenous in cells; host or cells: rat neutrophils (polymorphonuclear leukocytes)
T1 sequence (P12527 1-673): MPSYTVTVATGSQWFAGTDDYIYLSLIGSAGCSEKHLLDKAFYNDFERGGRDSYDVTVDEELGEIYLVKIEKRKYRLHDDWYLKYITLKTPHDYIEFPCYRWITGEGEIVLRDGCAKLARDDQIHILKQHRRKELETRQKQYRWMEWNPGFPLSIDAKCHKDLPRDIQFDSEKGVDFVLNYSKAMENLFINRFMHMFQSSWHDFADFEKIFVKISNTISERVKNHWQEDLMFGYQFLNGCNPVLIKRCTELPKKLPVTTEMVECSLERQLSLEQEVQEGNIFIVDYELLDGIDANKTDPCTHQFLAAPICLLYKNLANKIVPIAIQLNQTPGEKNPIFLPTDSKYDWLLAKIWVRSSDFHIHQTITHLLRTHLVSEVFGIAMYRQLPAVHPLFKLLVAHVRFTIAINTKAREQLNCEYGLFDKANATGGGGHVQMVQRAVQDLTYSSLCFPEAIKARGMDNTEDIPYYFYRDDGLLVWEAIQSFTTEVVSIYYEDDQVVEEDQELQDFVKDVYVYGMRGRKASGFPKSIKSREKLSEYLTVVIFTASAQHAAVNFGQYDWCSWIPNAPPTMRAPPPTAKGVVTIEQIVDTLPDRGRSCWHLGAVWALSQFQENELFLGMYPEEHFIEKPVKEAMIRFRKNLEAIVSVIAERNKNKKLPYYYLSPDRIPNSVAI
In words: Biosynthesis of 5-HETE by rat polymorphonuclear leukocytes in vitro (inhibition of rat 5-lipoxygenase). Type of assay: cell-based. To be noted: rat neutrophils, A23187, 3 minutes at 30° C.; concentration at which 50% inhibition is observed; read-out: INHIBITION OF RAT 5-LIPOXYGENASE, I50. The procedure:
Protocol for the Biosynthesis of 5-HETE by Rat Polymorphonuclear Leukocytes In Vitro
A suspension of rat neutrophils in buffer is incubated for 3 minutes at 30° C. with [^14 C]-arachidonic acid (AA) and calcium ionophore A23187. Citric Acid (2M) NDGA (10 mM) is used to quench the reaction. Following the addition of a trace amount of (^3 H)-5-HETE together with an excess of unlabeled 5-HETE to each tube, the mixture is extracted with chloroform/methanol. The organic layer is washed with dilute acid and an aliquot is transferred to glass tubes and dried. The residue is dissolved in a small volume of chloroform and an aliquot is spotted on silica gel TLC sheets, which are developed with an ethyl acetate/isoctane/water/acetic acid solvent system. The 5-HETE spots are visualized under UV light, cut out and placed in scintillation vials for counting. After adjusting for the extraction efficiency, the amount (pmole) of [^14 C]-5-HETE in each of the tubes is quantitated. The net pmoles of 5-HETE are obtained by subtracting the pmoles of 5-HETE in the tubes containing buffer alone (blank) from the pmoles of 5-HETE in the tubes containing […]. The ability of the test compounds to modulate the activity of this enzyme is determined by a decrease or increase in the net amount of 5-HETE produced.
If the percentage of inhibition exceeds 50%, the compounds are then evaluated in terms of response over a range of concentrations. From a plot of response against concentration, the I50 value is obtained. The I50 value is the concentration at which 50% inhibition is observed.

As to `C#CCOc1ccc(CC(=O)N[C@H](Cc2ccccc2)C(=O)OC)cc1Cl` [3-Chloro-4-propargyloxyphenylacetyl-D-phenylalanine methyl ester], the IC50 is 500 nM.

In the case of `C=CCOc1ccc(CC(=O)N(C)CCc2ccccc2)cc1Cl` [N--[4-Alloyoxy-3-chlorophenylacetyl]-N--methyl-2-phenylethylamine], the IC50 was determined as 2400 nM.

Regarding `CCCOc1ccc(CC(=O)N[C@H](Cc2ccccc2)C(=O)OC)cc1Cl` [3-Chloro-4-n-propyloxyphenylacetyl-D-phenylalanine methyl ester], the IC50 came to 800 nM.

In the case of `CN(CC(O)c1ccccc1)C(=O)Cc1ccc(OCCc2ccccc2)c(Cl)c1` (stereo not shown) [N--[3-Chloro-4-phenylethyloxyphenylacetyl]-N--methyl-2-hydroxy-2-phenyl-ethyl-amine], the IC50 was 3000 nM.

The record behind these values is patent US4579866A, “Phenylacetamides as anti-allergy, anti-asthma and anti-inflammatory agents” (USV Pharmaceutical Corp., priority 1984, dated 1986).
